Measured values taken from patent EP3265461B1, “VERBASCOSIDE DERIVATIVES” (Croda Italiana S.p.A., priority 2015, dated 2016).

Columns and labels:
[1] = tested on: platelet aggregation (PA); experiment: Phase II study: arachidonic acid-induced platelet aggregation by light transmission aggregometry; type: in vivo, human; conditions: platelets stimulated with 1 µM AA
Protocol: (§1) A randomized, double-blind Phase II study was conducted to evaluate verbascoside activity in modulating the platelet aggregation (PA) values on subjects with at least one cardiovascular risk factor, selected from: age over 65 years, diabetes mellitus, hypertension, smoke, hyperlipidemia, waist circumference greater than 102 cm in men or 88 cm in women. Patients under pharmacological treatment with platelet antiaggregants (aspirin, clopidogrel, ticlopidine, prasugrel, ticagrelor), with anticoagulants (e.g. warfarin) or with oral contraceptives, were excluded. Other exclusion criteria were: events of myocardial infarction, coronary revascularization (percutaneous or surgical), infarction, temporary ischemic attack, peripheral vascular pathology, and the consumption of corticosteroids and/or non-steroidal anti-inflammatory drugs in the last month.
(§2) The experimentation was conducted on 100 subjects. […]
(§3) PA was determined by means of light transmission aggregometry according to standard protocols. […] The aggregation was measured at 37°C with a PACKS-4 aggregometer (Helena Laboratories). The curves were recorded for 6 min. The aggregation was measured at a maximum aggregation (maximum PA) and at 5 min (delayed PA). […]

[2] = tested on: platelet aggregation (PA); experiment: Phase II study: ADP-induced platelet aggregation by light transmission aggregometry; type: in vivo, human; conditions: platelets stimulated with 5 µM ADP
Protocol: as §1, §2, §3

[3] = Oxidation stability as antioxidant power against the DPPH radical; type: physicochemical; conditions: 100 µM DPPH in methanol, 15 min in the dark at room temperature, 515 nm
Protocol: The oxidation stability of the compounds of formula (I) was evaluated as a function of their antioxidant power, determined as the reactivity of the compound against the stable radical 2,2-diphenyl-1-picrylhydrazyl (DPPH) in solution. High reactivity means poor stability under oxidizing conditions.
A 100 µM solution of DPPH in methanol, prepared from a 1 mM solution, then diluted at 1:10 was used for the determination.
The following final dilutions (from a solution in methanol having a double concentration) of the compound of formula (I) to be analyzed were prepared: 500 µg/mL, 100 µg/mL, 50 µg/mL, 10 µg/mL, 5 µg/mL, 2.5 µg/mL, 1 µg/mL, 0.5 µg/mL, 0.1 µg/mL, 0.05 µg/mL, 0 µg/mL.
500 µl of the compound to be tested at a certain concentration and 500 µl of DPPH were placed in a cuvette, they were all mixed and incubated in the dark at room temperature for 15 min.
The solution was analyzed with a spectrophotometer at a wavelength of 515 nm (methanol as white).
The color in the cuvettes varies from violet (DPPH without compound of formula (I)) to straw-yellow (DPPH with maximum inhibitory concentration of the compound of formula (I)).
The percent inhibition of the radical reaction is defined as: [(Absmax(DPPHalone)−Abs(DPPH+compound))/Absmax] × 100. [formula] […]

[4] = Stability in gastric fluids (SGF), HPLC; type: in vitro ADME; conditions: pH=1.6
Protocol: (§4) The stability of the compounds of formula (I) was measured under physiological conditions.
(§5) The stability measurement was conducted by means of analytic HPLC techniques with a UV detector at 330 nm. The half-life is reported (in hours).

[5] = Stability in fasted intestinal fluid (FASSIF), HPLC; type: in vitro ADME; conditions: pH=6.5
Protocol: as §4, §5

[6] = Stability in fed intestinal fluid (FESSIF), HPLC; type: in vitro ADME; conditions: fed-state simulated intestinal fluid (FESSIF), pH=5, read-out: FESSIF t1/2
Protocol: as §4, §5

Stability in blood, HPLC = type: in vitro ADME
Protocol: as §4, §5

[7] = Metabolism in human liver; type: in vitro ADME
Text: Moreover, it has also been determined that the derivatives (B), (C) and (D) are metabolized in human liver, whereas verbascoside (derivative (A)) is stable.

C[C@@H]1O[C@@H](O[C@@H]2[C@@H](O)[C@H](OCCc3ccc(O)c(O)c3)O[C@H](CO)[C@H]2OC(=O)/C=C/c2ccc(O)c(O)c2)[C@H](O)[C@H](O)[C@H]1O [(A), Verbascoside]
Arachidonic acid-induced maximum PA ([1]; after 2 weeks of 50 mg/day, time 0 value 50±9%, p=0.4): 48±10% | Arachidonic acid-induced maximum PA ([1]; after 2 weeks of 100 mg/day, time 0 value 51±13%, p<0.01): 39±15% | ADP-induced maximum PA ([2]; after 2 weeks of 50 mg/day, time 0 value 58±8%, p=0.5): 56±9% | ADP-induced maximum PA ([2]; after 2 weeks of 100 mg/day, time 0 value 60±12%, p<0.01): 49±15% | Inhibitory activity (IC50) [3]: 2 µg/mL | SGF t1/2 [4]: STABLE | FASSIF t1/2 [5]: stable | half-life [6]: > 1440 min | Blood t1/2 (Stability in blood, HPLC): stable | metabolized in human liver [7]: stable
